Measurements reported in article PMC7907166, “AOA-2 Derivatives as Outer Membrane Protein A Inhibitors for Treatment of Gram-Negative Bacilli Infections” (Frontiers in Microbiology, 2021).

Tests used:
Assay type in all cases: cell-based
P. aeruginosa PAO1 [1] = test: Bacterial adhesion assay to A549 cells; conditions: for adherence of PAO1 strain to A549 cells (in words): peptide 250 μg/mL, 30 min, Figure 2A; for adherence of P. aeruginosa to A549 cells reduced to: bacteria pre-incubated with peptide 250 μg/mL 30 min, MOI 500, 2 h, CFU count; for adherence of PAO1 strain to A549 cells compared with AOA-2: peptide 125, 62.5 and 31.25 μg/mL, some statistical differences, Figure 2B
Protocol: (§1) The human pneumocyte cell line type II A549, derived from a human lung carcinoma, obtained from the American Type Culture Collection was used and cultured in DMEM medium (Invitrogen, Spain) supplemented with 10% of heat-inactivated fetal bovine serum, 50 μg/mL vancomycin (Laboratorios Normon, Spain), 20 μg/mL gentamicin (Normon Laboratories, Spain), 0.25 μg/mL amphotericin B mL (Invitrogen, Spain) and 1% HEPES (Invitrogen, Spain) in a humidified incubator, 5% CO2 at 37°C. Routine passage of A549 cells was performed every 3–4 days. Cells were seeded 24 h in 96-well plates (Sarstedt, Germany) for the cell viability assay, and in 24-well plates (Sarstedt, Germany) for the bacterial adhesion assays.
(§2) A. baumannii ATCC 17978, P. aeruginosa PAO1 and E. coli ATCC 25922 strains were incubated with AOA-2 (31.25, 62.5, 125, and 250 μg/mL, 30 min), AOA-2 derivatives RW01, RW02, RW03, RW06, RW07, RW08, RW09, RW10, RW11, and RW13 (250 μg/mL, 30 min), or AOA-2 derivatives RW01, RW02, RW03, RW06 (31.25, 62.5, and 125 μg/mL, 30 min), and added at 10^8 CFU/mL, corresponding to a multiplicity of infection (MOI) of 500, to the A549 cells for 2 h at 5% CO2 and 37°C. Subsequently, infected A549 cells were washed five times with prewarmed PBS 1X and lysed with 0.5% Triton X-100. Serial dilutions of these lysates were made and plated on blood agar plates (Blood-Agar Columbia, Becton Dickinson Microbiology Systems, United States) and incubated at 37°C for 24 h for colony counting and then determination of CFU/mL that attached to A549 cells.

E. coli ATCC 25922 [2] = test: Bacterial adhesion assay to A549 cells; conditions: for adherence of E. coli to A549 cells reduced to: bacteria pre-incubated with peptide 250 μg/mL 30 min, MOI 500, 2 h, CFU count; for adherence of ATCC 25922 to host cells compared with AOA-2: peptide 125, 62.5 and 31.25 μg/mL, Figure 2B
Protocol: as §1, §2

A. baumannii ATCC 17978 [3] = test: Bacterial adhesion assay to A549 cells; conditions: for adherence of A. baumannii to A549 cells reduced to: bacteria pre-incubated with peptide 250 μg/mL 30 min, MOI 500, 2 h, CFU count
Protocol: as §1, §2

A. baumannii ATCC 17978 [4] = conditions: peptide added at 125 μg/mL; microdilution, two independent experiments
Protocol: The minimal inhibitory concentration (MIC) of colistin in absence and presence of RW01 or RW06 at […] for A. baumannii ATCC 17978 strain was determined by microdilution assay in two independent experiments as previously reported ([Parra-Millán et al., 2018]).

P. aeruginosa PAO1 [5] = test: Bacterial cytotoxicity: viability of infected A549 cells (MTT); conditions: PAO1 pretreated with peptide 125 and 62.5 μg/mL (31.25 μg/mL excepted); 24 h infection
Protocol: (§3) A549 cells were incubated with the peptide derivatives RW01, RW02, RW03, RW06, RW07, RW08, RW09, RW10, RW11, and RW13 (0, 3.5, 7, 15, 35, 62, 125, 250, and 500 μg/mL) for 24 h with 5% CO2 at 37°C. Prior the evaluation of the peptides cytotoxicity, A549 cells were washed three times with prewarmed PBS 1X. Subsequently, quantitative cytotoxicity was evaluated by measuring the mitochondrial reduction activity using the 3-(4,5-dimethylthiazol-2-yl)-2,5-diphenyltetrazolium bromide (MTT) assay as described previously ([Smani et al., 2013]). The percentage of […] was calculated from the absorbance at 570 nm as follow: [(Absorbance 570 nm of treated cells/Absorbance 570 nm mean of untreated cells) × 100].
(§4) A549 cells were infected with 10^8 CFU/mL, corresponding to a MOI of 500, of A. baumannii ATCC 17978, P. aeruginosa PAO1 and E. coli ATCC 25922 strains pretreated with AOA-2 or AOA-2 derivatives RW01, RW02, RW03, and RW06 (31.25, 62.5, and 125 μg/mL, 30 min) for 24 h with 5% CO2 at 37°C. Prior to the evaluation of bacterial cytotoxicity, viable bacteria are first removed from A549 cell culture by washing these A549 cells five times with PBS 1X. Subsequently, cell viability was evaluated as described above.

A. baumannii ATCC 17978 [6] = test: as above; conditions: ATCC 17978 pretreated with peptide 125 μg/mL only; 24 h infection
Protocol: as §3, §4

E. coli ATCC 25922 [7] = test: as above
Protocol: as §3, §4

[8] = tested on: OmpA-deficient mutant A. baumannii, JPAB01; conditions: peptide added at 125 μg/mL, did not change the activity

| Substance | adherence of PAO1 strain to A549 cells (in words) (P. aeruginosa PAO1 [1]) | adherence of P. aeruginosa to A549 cells reduced to (P. aeruginosa PAO1 [1]) | adherence of PAO1 strain to A549 cells compared with AOA-2 (P. aeruginosa PAO1 [1]) | adherence of A. baumannii to A549 cells reduced to (A. baumannii ATCC 17978 [3]) | adherence of E. coli to A549 cells reduced to (E. coli ATCC 25922 [2]) | adherence of ATCC 25922 to host cells compared with AOA-2 (E. coli ATCC 25922 [2]) | further results |
| --- | --- | --- | --- | --- | --- | --- | --- |
| &Trp-D-Pro-Trp-Arg-D-Pro-Arg& (head to tail) [RW09] | reduced | – | – | – | – | – | – |
| &2Nal-D-Pro-Arg-3Pal-D-Pro-Arg& (head to tail) [RW11] | reduced | – | – | – | – | – | – |
| &3Pal-D-Pro-Arg-Trp-D-Pro-Tyr& (head to tail) [RW13] | reduced | – | – | – | – | – | adherence of ATCC 25922 strain to A549 cells (in words) (E. coli ATCC 25922 [2]; peptide 250 μg/mL, 30 min, Figure 2A): reduced |
| &Tyr-D-Pro-Ala-Tyr-D-Pro-Ala& (head to tail) [RW10] | reduced | – | – | – | – | – | – |
| &2Nal-D-Pro-Arg-2Nal-D-Pro-Arg& (head to tail) [RW03, AOA-2 derivative with tryptophan analog 2Nal] | – | 20.71% | reduced better | 55.47% | 29.62% | reduced with some statistical differences | – |
| &Trp-(NH2) D-Pro-Arg-Trp-D-Pro-Arg& (head to tail) [RW01, AOA-2 derivative, solubility enhanced by the addition of NH2 group] | – | 40.08% | reduced better | 26.18% | 66.66% | reduced with some statistical differences | MIC of colistin in presence of peptide (A. baumannii ATCC 17978 [4]): 0.015 µg/mL; cell viability of infected A549 cells with respect to untreated strain (P. aeruginosa PAO1 [5]): increased significantly; cell viability of infected A549 cells with respect to untreated strain (A. baumannii ATCC 17978 [6]): increased significantly; cell viability of infected A549 cells with respect to untreated strain (E. coli ATCC 25922 [7]; ATCC 25922 pretreated with peptide 125, 62.5 and 31.25 μg/mL, 24 h infection): increased significantly; protection from cell death caused by ATCC 25922 compared with AOA-2 (E. coli ATCC 25922 [7]; peptide 62.5 and 31.25 μg/mL): more protective; MIC of colistin in presence of peptide [8]: 0.0625 µg/mL; adherence of ATCC 17978 to A549 cells compared with AOA-2 (A. baumannii ATCC 17978 [3]; peptide 125, 62.5 and 31.25 μg/mL, except RW06 at 31.25 μg/mL, Figure 2B): reduced non-statistically |
